Laboratory results reported in patent publication US10988477B2 (Merck Patent GmbH, priority 2018, dated 2021).

Tests used:
[1] = target: GCN2 kinase (Homo sapiens, UniProt Q9P2K8); experiment: GCN2 enzyme inhibition assay (Transcreener ADP2 fluorescence polarization); format: biochemical; details: 280 μM ATP
Summary of the method: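 ADP formation read by Transcreener FP after a 1 h, 25 °C kinase reaction containing 280 μM ATP, 200 μM (RS)7 substrate and 4 nM GCN2, pH 7.5 Tris buffer. Compounds (0–8 μM final) were added 10 min before ATP. Percent inhibition gave IC50 and apparent Ki via tight-binding fit.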

[2] = target: intracellular GCN2 (phosphorylation of the GCN2 substrate eIF2α) (Homo sapiens, UniProt Q9P2K8); experiment: GCN2 cellular inhibition assay (AlphaScreen SureFire P-eIF2α Ser51, borrelidin-treated U2OS cells); format: cell-based; details: biomarker assay, phosphorylated eIF2α Ser51 in borrelidin-treated U2OS cells
Summary of the method: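 U2OS cells, adhered overnight, received compounds in 4-fold serial dilutions from 40 μM final, then 10 μM borrelidin for 1 h at 37 °C. Lysates were read by AlphaScreen for phospho-eIF2α Ser51; percent inhibition was set against borrelidin-only wells.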

[3] = compounds of Formula II, 4 nM GCN2 kinase
[4] = Enzyme activity for compounds of Formula IV, Ki(app), 25° C.

intracellular GCN2 (phosphorylation of the GCN2 substrate eIF2α), sequence (Q9P2K8 whole entry): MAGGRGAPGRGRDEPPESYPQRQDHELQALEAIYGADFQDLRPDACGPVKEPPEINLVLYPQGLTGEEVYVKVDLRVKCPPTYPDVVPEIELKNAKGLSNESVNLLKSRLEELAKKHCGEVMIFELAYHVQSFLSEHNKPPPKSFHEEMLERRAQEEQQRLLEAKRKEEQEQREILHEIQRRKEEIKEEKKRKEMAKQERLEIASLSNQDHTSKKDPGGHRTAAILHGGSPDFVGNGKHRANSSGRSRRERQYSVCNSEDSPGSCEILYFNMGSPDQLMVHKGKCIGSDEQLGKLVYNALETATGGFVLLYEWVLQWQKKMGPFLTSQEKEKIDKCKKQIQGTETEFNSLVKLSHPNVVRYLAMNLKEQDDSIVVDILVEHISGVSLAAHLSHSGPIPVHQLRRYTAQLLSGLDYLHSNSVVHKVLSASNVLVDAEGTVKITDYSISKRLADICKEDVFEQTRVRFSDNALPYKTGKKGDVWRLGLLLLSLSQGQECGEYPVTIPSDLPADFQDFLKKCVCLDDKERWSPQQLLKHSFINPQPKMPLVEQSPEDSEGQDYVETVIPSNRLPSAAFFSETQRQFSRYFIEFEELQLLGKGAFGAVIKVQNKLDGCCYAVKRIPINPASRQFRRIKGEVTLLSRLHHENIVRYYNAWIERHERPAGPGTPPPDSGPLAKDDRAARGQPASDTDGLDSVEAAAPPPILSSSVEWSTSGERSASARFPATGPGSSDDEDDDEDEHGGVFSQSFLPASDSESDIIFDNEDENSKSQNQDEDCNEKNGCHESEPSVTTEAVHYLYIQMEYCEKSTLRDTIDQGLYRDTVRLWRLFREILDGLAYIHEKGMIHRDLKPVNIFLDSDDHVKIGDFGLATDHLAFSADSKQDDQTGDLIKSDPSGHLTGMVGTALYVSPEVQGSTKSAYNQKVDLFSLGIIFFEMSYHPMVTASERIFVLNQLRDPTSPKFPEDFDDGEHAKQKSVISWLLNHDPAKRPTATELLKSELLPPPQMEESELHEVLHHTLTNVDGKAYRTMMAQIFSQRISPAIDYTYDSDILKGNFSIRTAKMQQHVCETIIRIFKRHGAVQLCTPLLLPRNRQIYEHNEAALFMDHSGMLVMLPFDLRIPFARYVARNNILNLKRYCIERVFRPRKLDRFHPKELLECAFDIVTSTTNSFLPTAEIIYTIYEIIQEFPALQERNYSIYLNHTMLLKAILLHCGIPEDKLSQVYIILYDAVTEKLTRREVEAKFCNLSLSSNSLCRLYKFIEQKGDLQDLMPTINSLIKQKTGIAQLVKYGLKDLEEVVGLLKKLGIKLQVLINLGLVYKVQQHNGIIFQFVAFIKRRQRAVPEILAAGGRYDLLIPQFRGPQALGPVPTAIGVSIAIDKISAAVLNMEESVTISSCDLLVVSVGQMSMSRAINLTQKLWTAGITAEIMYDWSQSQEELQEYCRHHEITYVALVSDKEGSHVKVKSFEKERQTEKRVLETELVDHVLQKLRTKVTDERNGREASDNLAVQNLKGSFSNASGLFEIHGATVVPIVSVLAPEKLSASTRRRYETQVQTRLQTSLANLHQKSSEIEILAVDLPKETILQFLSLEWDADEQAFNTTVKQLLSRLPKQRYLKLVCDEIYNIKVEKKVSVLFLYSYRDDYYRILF
GCN2 kinase, sequence (Q9P2K8 whole entry): as above

Row | Ki [1, 3] [nM] | IC50 ([2]; compounds of Formula II) [µM] | Ki [1, 4] [nM] | IC50 ([2]; compounds of Formula IV) [µM] | SMILES
1 |  |  | < 10 | 0.5 to 5 | CC1C(c2cn[nH]c2)NCCN1c1ccnc(-c2cnc3cnc(Cl)cn23)n1 (single isomer, unassigned) [IV-230, 6-Chloro-3-(4-(2-methyl-3-(1H-pyrazol-4-yl)piperazin-1-yl)pyrimidin-2-yl)imidazo[1,2-a]pyrazine]
2 |  |  | 10 to 100 | > 5 | CC1C(c2cn[nH]c2)CCN1c1ccnc(-c2cnc3cnc(C(F)(F)F)cn23)n1 (stereo not drawn) [IV-689, 3-(4-(2-Methyl-3-(1H-pyrazol-4-yl)pyrrolidin-1-yl)pyrimidin-2-yl)-6-(trifluoromethyl)imidazo[1,2-a]pyrazine]
3 |  |  | 100 to 1000 | > 5 | CC(=O)N1CCN(c2ccnc(-c3cnc4cnc(C(C)(F)F)cn34)n2)CC1 [IV-78, 1-(4-(2-(6-(1,1-Difluoroethyl)imidazo[1,2-a]pyrazin-3-yl)pyrimidin-4-yl)piperazin-1-yl)ethan-1-one]
4 |  |  | 100 to 1000 | > 5 | CC1CN(c2ccnc(-c3cnc4cnc(C(F)(F)F)cn34)n2)C(C)C(c2c[nH]cn2)O1 (single isomer, unassigned) [IV-638, 2-(1H-Imidazol-4-yl)-3,6-dimethyl-4-(2-(6-(trifluoromethyl)imidazo[1,2-a]pyrazin-3-yl)pyrimidin-4-yl)morpholine]
5 |  |  | < 10 | < 0.5 | CC1CN(c2ccnc(-c3cnc4cnc(C(F)(F)F)cn34)n2)CC(c2c[nH]cn2)O1 (single isomer, unassigned) [IV-405, 2-(1H-Imidazol-4-yl)-6-methyl-4-(2-(6-(trifluoromethyl)imidazo[1,2-a]pyrazin-3-yl)pyrimidin-4-yl)morpholine]
6 |  |  | 10 to 100 | 0.5 to 5 | FC(F)(F)c1cn2c(-c3nccc(N4CCC(c5c[nH]nc5C5CC5)C4)n3)cnc2cn1 (stereo not drawn) [IV-576, 3-(4-(3-(3-Cyclopropyl-1H-pyrazol-4-yl)pyrrolidin-1-yl)pyrimidin-2-yl)-6-(trifluoromethyl)imidazo[1,2-a]pyrazine]
7 |  |  | 100 to 1000 | 0.5 to 5 | CC1(C)CN(c2ccnc(-c3cnc4cnc(Cl)cn34)n2)CC(c2cn[nH]c2)N1 (stereo not drawn) [IV-353, 6-Chloro-3-(4-(3,3-dimethyl-5-(1H-pyrazol-4-yl)piperazin-1-yl)pyrimidin-2-yl)imidazo[1,2-a]pyrazine]
8 |  |  | 100 to 1000 | > 5 | Cc1nnc([C@@H]2CN(c3ccnc(-c4cnc5cnc(C(F)(F)F)cn45)n3)C[C@H](C)O2)o1 [IV-716]

More lines, now with the values behind:

Row | SMILES | Ki [1, 3] [nM] | IC50 ([2]; compounds of Formula II) [µM] | Ki [1, 4] [nM] | IC50 ([2]; compounds of Formula IV) [µM]
9 | CS(=O)(=O)NCC1CN(c2cc(-c3cnc4ccc(C(F)F)nn34)ncn2)CC2(CC2)O1 (stereo not drawn) [II-375, N-((7-(6-(6-(Difluoromethyl)imidazo[1,2-b]pyridazin-3-yl)pyrimidin-4-yl)-4-oxa-7-azaspiro[2.5]octan-5-yl)methyl)methanesulfonamide] | < 10 | < 0.5 |  | 
10 | CC(=O)N1CCN(c2cccc(-c3cnc4ccc(C(F)F)nn34)c2)CC1 [II-150, 1-(4-(3-(6-(Difluoromethyl)imidazo[1,2-b]pyridazin-3-yl)phenyl)piperazin-1-yl)ethanone] | 10 to 1000 | 0.5 to 5 |  | 
11 | CN1CCN(c2cc(-c3cnc4ccc(Cl)nn34)ccn2)CC1 [II-195, 6-Chloro-3-(2-(4-methylpiperazin-1-yl)pyridin-4-yl)imidazo[1,2-b]pyridazine] | 10 to 1000 | > 5 |  | 
12 | CS(=O)(=O)NOC1CCCN(c2cc(-c3cnc4ccc(C(F)F)nn34)ccn2)C1 (stereo not drawn) [II-124, N-((1-(4-(6-(Difluoromethyl)imidazo[1,2-b]pyridazin-3-yl)pyridin-2-yl)piperidin-3-yl)oxy)methanesulfonamide] | < 10 | 0.5 to 5 |  | 
13 | CC1CCC(CNS(C)(=O)=O)CN1c1cc(-c2cnc3ccc(C(F)F)nn23)ncc1F (stereo not drawn) [II-271, N-[[1-[2-[6-(Difluoromethyl)imidazo[1,2-b]pyridazin-3-yl]-5-fluoro-4-pyridyl]-6-methyl-3-piperidyl]methyl]methanesulfonamide] | 10 to 1000 | 0.5 to 5 |  | 
14 | CS(=O)(=O)NCC1CC(N2CC(F)C2)CN(c2cc(-c3cnc4ccc(C(F)F)nn34)ncn2)C1 (stereo not drawn) [II-428, N-((1-(6-(6-(Difluoromethyl)imidazo[1,2-b]pyridazin-3-yl)pyrimidin-4-yl)-5-(3-fluoroazetidin-1-yl)piperidin-3-yl)methyl)methanesulfonamide] | 10 to 1000 | > 5 |  | 
15 | CS(=O)(=O)NC1CCN(c2cc(-c3cnc4ccc(C(F)F)nn34)ncn2)C1 (stereo not drawn) [II-199, N-(1-(6-(6-(Difluoromethyl)imidazo[1,2-b]pyridazin-3-yl)pyrimidin-4-yl)pyrrolidin-3-yl)methanesulfonamide] | 10 to 1000 | > 5 |  | 
16 | CS(=O)(=O)N1CCC2C(C1)OCCN2c1cc(-c2cnc3ccc(C(F)F)nn23)ncn1 (stereo not drawn) [II-369, 1-(6-(6-(Difluoromethyl)imidazo[1,2-b]pyridazin-3-yl)pyrimidin-4-yl)-6-(methylsulfonyl)octahydro-1H-pyrido[3,4-b][1,4]oxazine] | 10 to 1000 | > 5 |  | 
17 | FC(F)(F)c1ccc2ncc(-c3ccnc(N4CCCC(c5c[nH]cn5)C4)c3)n2n1 (stereo not drawn) [II-741] | < 10 | < 0.5 |  | 
18 | [2H]C([2H])([2H])N1CCN(c2cc(-c3cnc4ccc(C(F)F)nn34)ncn2)C(C)C1CNS(C)(=O)=O (stereo not drawn) [II-523, N-((4-(6-(6-(Difluoromethyl)imidazo[1,2-b]pyridazin-3-yl)pyrimidin-4-yl)-3-methyl-1-(methyl-d3)piperazin-2-yl)methyl)methanesulfonamide] | < 10 | < 0.5 |  | 
19 | OCCC1CCCN(c2cc(-c3cnc4ccc(C(F)(F)F)nn34)ncn2)C1 (stereo not drawn) [II-499, 2-(1-(6-(6-(Trifluoromethyl)imidazo[1,2-b]pyridazin-3-yl)pyrimidin-4-yl)piperidin-3-yl)ethan-1-ol] | 10 to 1000 | 0.5 to 5 |  | 
20 | CC1CC(CNS(C)(=O)=O)C(C)N(c2cc(-c3cnc4ccc(C(F)F)nn34)ncn2)C1 (single isomer, unassigned) [II-545, N-((1-(6-(6-(Difluoromethyl)imidazo[1,2-b]pyridazin-3-yl)pyrimidin-4-yl)-2,5-dimethylpiperidin-3-yl)methyl)methanesulfonamide] | 10 to 1000 | 0.5 to 5 |  | 
21 | CC1(NS(C)(=O)=O)CCCN(c2cc(-c3cnc4ccc(C(F)F)nn34)ncn2)C1 (stereo not drawn) [II-446, N-(1-(6-(6-(Difluoromethyl)imidazo[1,2-b]pyridazin-3-yl)pyrimidin-4-yl)-3-methylpiperidin-3-yl)methanesulfonamide] | 10 to 1000 | > 5 |  | 
22 | CC1CCC(CNS(C)(=O)=O)CN1c1cc(-c2cnc3ccc(C(F)F)nn23)ncn1 (stereo not drawn) [II-246, N-((1-(6-(6-(Difluoromethyl)imidazo[1,2-b]pyridazin-3-yl)pyrimidin-4-yl)-6-methylpiperidin-3-yl)methyl)methanesulfonamide] | 10 to 1000 | > 5 |  | 
23 | O=S1(=O)CCN(c2cc(-c3cnc4ccc(C(F)F)nn34)ccn2)CC1 [II-77, 4-(4-(6-(Difluoromethyl)imidazo[1,2-b]pyridazin-3-yl)pyridin-2-yl)thiomorpholine 1,1-dioxide] | 10 to 1000 | > 5 |  | 
24 | O=C1NCC2CN(c3cc(-c4cnc5ccc(C(F)F)nn45)ccn3)CCN12 (stereo not drawn) [II-172, 7-(4-(6-(Difluoromethyl)imidazo[1,2-b]pyridazin-3-yl)pyridin-2-yl)hexahydroimidazo[1,5-a]pyrazin-3(2H)-one] | 10 to 1000 | 0.5 to 5 |  | 
